# According to patent US10822317B2, “Methods and compositions for wound healing” (QBiotics Limited, priority 2013, dated 2020):
# Tested on: mouse stroma of human SK-Mel-28 xenografts
# Experiment: Gene expression in mouse stroma of human tumour xenografts
# Assay type: in vivo
# Conditions: 30 μg intratumoural
# Experimental: Mouse stroma in human tumour xenografts were obtained from mice in which the Sk-Mel-28 human melanoma cell line was injected subcutaneously into 2 sites on the flanks of each BALB/c FoxnInu mouse (2×10^6 cells/site) and allowed to grow to approximately 7 mm diameter. Each tumour was then injected with 50 μL of 20% propylene glycol containing 30 μg Compound 1 or with 50 µL of 20% propylene glycol. At different times after injection a mouse was euthanased and the tumours harvested, the skin covering removed, and the intact tumours stored at −80° C.
# RNA was extracted from 30 mg of frozen tumour or 1×10^7 cells using the QiagenRNeasyPlus Mini Kit, according to manufacturer's instructions, then quantitated with a NanoDrop instrument and integrity confirmed on denaturing agarose gels bearing a 1 kb DNA marker and stained with ethidium bromide.
# Approximately 500 ng of total unlabelled RNA was adjusted to a final volume of 11 μL with nuclease-free water. The RNA was incubated with 9 μL of the reverse transcriptase master mix (1 μL of T7 Oligo (dT) Primer, 2 μL of 10× first strand buffer, 4 μL of dNTP mix, 1 μL of RNase inhibitor and 1 μL of ArrayScript) at 42° C. for 2 hr. This was followed by the second strand cDNA synthesis step which involved a further incubation at 16° C. for 2 hr with 80 µL of the second strand master mix (63 μL nuclease-free water, 10 μL 10× second strand buffer, 4 μL dNTP mix, […] and 1 μL RNase H). The cDNA was purified by filtering through a cDNA Filter Cartridge with 250 μL of cDNA binding buffer and washing with 500 μL of the wash buffer provided in the kit. Purified cDNA was eluted with 20 μL of 55° C. nuclease-free water. Each cDNA sample was incubated with 7.5 μL of the IVT master mix (2.5 μL of T7 10× reaction buffer, 2.5 μL of T7 enzyme mix and 2.5 μL biotin-NTP mix) at 37° C. for 16 hr. The reaction was stopped with the addition of 75 μL of nuclease-free water to each cRNA sample. The biotinylated, amplified RNA was purified by filtering the cRNA samples through cRNA Filter Cartridges with 350 μL of cRNA binding buffer and 250 μL of 100% ethanol mixed together prior to loading onto the filters. The cRNA filter cartridges with attached RNA were then washed with 650 μL of wash buffer before eluting purified cRNA with 200 μL of 55° C. nuclease-free water.
# The cRNA samples were heated at 65° C. for 5 min and collected by pulse centrifugation. After heating at 65 degrees for 5 min, approximately 750 ng of the cRNA sample was aliquoted into separate tubes to which were added ˜5 μL of RNase-free water and 10 μL of Hyb Mix. Approximately 15 μL of the prepared cRNA mix was loaded onto the Illumina Expression BeadChips. Subsequent steps of hybridisation and washing were carried out according to the Whole-Genome Gene Expression Direct Hybridization Assay Guide supplied by Illumina.
# The Human HT-12 v4 Expression BeadChips cover more than 47,000 transcripts and known splice variants across the human transcriptome. The MouseRef-8 v2.0 Expression BeadChips cover approximately 25,600 well-annotated RefSeq (Reference Sequence) transcripts, comprising over 19,000 unique genes.
# BeadChips were read by the iScan System, and transferred via GenomeStudio into GeneSpring GX v12.5 (Agilent Technologies, Santa Clara, Calif., USA). The expression values were normalized using quantile normalization with default settings. The entities were filtered based on the detection score calculated by GenomeStudio where p≤0.05 was considered significant.
# Expression data using mouse gene-specific microarrays were performed for 2-3 individual human SK-Mel-28 xenografts treated by intratumoural injection with 30 μg of Compound 1, along with 3 vehicle-only sites, the data combined. Only those mouse genes for which expression in the Compound 1 treated site was >2 times higher or >2 times lower than in the vehicle-injected site were examined for relevance to wound healing.
smiles,measurement,setting,value
"CC=C(C)C(=O)OC1C(C)C2(O)C(C3OC3(CO)C(O)C3(O)C(=O)C(C)=CC32)C2C(C)(C)C12OC(=O)C(C)CC (stereo not drawn) [Compound 1, 12-tigloyl-13-(2-methylbutanoyl)-6,7-epoxy-4,5,9,12,13,20-hexahydroxy-1-tigliaen-3-one]",Acta1: Direction of regulation,0.5 h,Up
same,Tgm2: Direction of regulation,0.5 h,Up
same,Thbs2: Direction of regulation,0.5 h,Down
same,Thbs2: Fold change in expression,"0.5 h, Down",3.98 fold
same,Acta1: Fold change in expression,"0.5 h, Up",9.3 fold
same,Tgm2: Fold change in expression,"0.5 h, Up",2.67 fold
same,Col17a1: Direction of regulation,1 h,Up
same,Itga7: Direction of regulation,1 h,Up
same,Krt5: Direction of regulation,1 h,Up
same,Krt10: Direction of regulation,1 h,Up
same,Krt15: Direction of regulation,1 h,Up
same,Krt17: Direction of regulation,1 h,Up
same,Krtdap: Direction of regulation,1 h,Up
same,LCe1a1: Direction of regulation,1 h,Up
same,Lce1a2: Direction of regulation,1 h,Up
same,Lce1b: Direction of regulation,1 h,Up
same,Lce1m: Direction of regulation,1 h,Up
same,Lce1d: Direction of regulation,1 h,Up
same,Lor: Direction of regulation,1 h,Up
same,krt14: Direction of regulation,1 h,Up
same,Col17a1: Fold change in expression,"1 h, Up",2.7 fold
same,Itga7: Fold change in expression,"1 h, Up",2.1 fold
same,Krt5: Fold change in expression,"1 h, Up",2.8 fold
same,Krt10: Fold change in expression,"1 h, Up",7 fold
same,Krt15: Fold change in expression,"1 h, Up",2.3 fold
same,Krt17: Fold change in expression,"1 h, Up",2.9 fold
same,Krtdap: Fold change in expression,"1 h, Up",7 fold
same,LCe1a1: Fold change in expression,"1 h, Up",2.7 fold
same,Lce1a2: Fold change in expression,"1 h, Up",3 fold
same,Lce1b: Fold change in expression,"1 h, Up",4.8 fold
same,Lce1m: Fold change in expression,"1 h, Up",4.9 fold
same,Lce1d: Fold change in expression,"1 h, Up",3.3 fold
same,Lor: Fold change in expression,"1 h, Up",11.6 fold
same,krt14: Fold change in expression,"1 h, Up",9.4 fold
same,Col17a1: Direction of regulation,2 h,Up
same,Krt10: Direction of regulation,2 h,Up
same,Lor: Direction of regulation,2 h,Up
same,krt14: Direction of regulation,2 h,Up
same,Col17a1: Fold change in expression,"2 h, Up",2 fold
same,Krt10: Fold change in expression,"2 h, Up",2.4 fold
same,Lor: Fold change in expression,"2 h, Up",2.8 fold
same,krt14: Fold change in expression,"2 h, Up",5.6 fold
same,Acta1: Direction of regulation,4 h,Up
same,CXCL1: Direction of regulation,4 h,Up
same,Col17a1: Direction of regulation,4 h,Up
same,Egr1: Direction of regulation,4 h,Up
same,Krt10: Direction of regulation,4 h,Up
same,Krt17: Direction of regulation,4 h,Up
same,Krt71: Direction of regulation,4 h,Up
same,Krtdap: Direction of regulation,4 h,Up
same,LCe1a1: Direction of regulation,4 h,Up
same,Tgm2: Direction of regulation,4 h,Down
same,krt14: Direction of regulation,4 h,Up
same,Tgm2: Fold change in expression,"4 h, Down",2 fold
same,Acta1: Fold change in expression,"4 h, Up",30.3 fold
same,CXCL1: Fold change in expression,"4 h, Up",12.1 fold
same,Col17a1: Fold change in expression,"4 h, Up",3.2 fold
same,Egr1: Fold change in expression,"4 h, Up",4.7 fold
same,Krt10: Fold change in expression,"4 h, Up",8.6 fold
same,Krt17: Fold change in expression,"4 h, Up",10 fold
same,Krt71: Fold change in expression,"4 h, Up",3.2 fold
same,Krtdap: Fold change in expression,"4 h, Up",3.8 fold
same,LCe1a1: Fold change in expression,"4 h, Up",2.8 fold
same,krt14: Fold change in expression,"4 h, Up",9.7 fold
same,Acta1: Direction of regulation,8 h,Up
same,Egr1: Direction of regulation,8 h,Up
same,Krt10: Direction of regulation,8 h,Down
same,Krt17: Direction of regulation,8 h,Down
same,Krt10: Fold change in expression,"8 h, Down",2.1 fold
same,Krt17: Fold change in expression,"8 h, Down",2 fold
same,Acta1: Fold change in expression,"8 h, Up",8.5 fold
same,Egr1: Fold change in expression,"8 h, Up",5.34 fold
